Laboratory results: ChEMBL document CHEMBL1255203 (Bioorg Med Chem Lett, 2010)

Experiments:
Assay type in all cases: ADME
Cytochrome P450 1A2 = molecular target: T1, Cytochrome P450 1A2 (Homo sapiens, UniProt P05177); test: Inhibition of human CYP1A2
T1 sequence (P05177 whole entry): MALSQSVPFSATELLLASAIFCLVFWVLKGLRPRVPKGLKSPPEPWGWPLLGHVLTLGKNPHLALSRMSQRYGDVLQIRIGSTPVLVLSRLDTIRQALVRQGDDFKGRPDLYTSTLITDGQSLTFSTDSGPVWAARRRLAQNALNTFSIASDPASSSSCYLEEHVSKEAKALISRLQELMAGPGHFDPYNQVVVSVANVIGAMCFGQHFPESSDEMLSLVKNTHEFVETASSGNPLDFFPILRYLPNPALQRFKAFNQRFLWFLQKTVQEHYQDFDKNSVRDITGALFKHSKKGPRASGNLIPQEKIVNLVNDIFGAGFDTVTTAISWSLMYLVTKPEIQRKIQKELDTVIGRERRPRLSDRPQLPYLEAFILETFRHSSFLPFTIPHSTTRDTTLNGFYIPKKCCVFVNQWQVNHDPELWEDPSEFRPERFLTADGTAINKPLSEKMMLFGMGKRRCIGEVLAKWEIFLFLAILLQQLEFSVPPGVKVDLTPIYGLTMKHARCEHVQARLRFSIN

Cytochrome P450 2C9 = Cytochrome P450 2C9 (Homo sapiens, UniProt P11712); test: Inhibition of human CYP2C9
Chain of Cytochrome P450 2C9 (P11712 whole entry): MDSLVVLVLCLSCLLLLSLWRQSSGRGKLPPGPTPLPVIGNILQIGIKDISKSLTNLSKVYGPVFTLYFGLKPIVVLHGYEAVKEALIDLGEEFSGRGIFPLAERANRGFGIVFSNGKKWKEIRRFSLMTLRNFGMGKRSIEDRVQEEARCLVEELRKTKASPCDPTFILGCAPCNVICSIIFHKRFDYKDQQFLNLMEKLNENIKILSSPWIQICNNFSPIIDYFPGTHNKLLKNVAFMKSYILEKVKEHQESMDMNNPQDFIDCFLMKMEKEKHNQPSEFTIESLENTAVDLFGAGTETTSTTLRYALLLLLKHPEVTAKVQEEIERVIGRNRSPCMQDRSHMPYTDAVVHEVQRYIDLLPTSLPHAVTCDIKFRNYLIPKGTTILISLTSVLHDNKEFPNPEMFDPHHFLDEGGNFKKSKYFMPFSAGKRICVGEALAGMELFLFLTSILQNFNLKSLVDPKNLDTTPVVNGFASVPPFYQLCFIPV

Cytochrome P450 3A4 = Cytochrome P450 3A4 (Homo sapiens, UniProt P08684); test: Inhibition of human CYP3A4
Chain of Cytochrome P450 3A4 (P08684 whole entry): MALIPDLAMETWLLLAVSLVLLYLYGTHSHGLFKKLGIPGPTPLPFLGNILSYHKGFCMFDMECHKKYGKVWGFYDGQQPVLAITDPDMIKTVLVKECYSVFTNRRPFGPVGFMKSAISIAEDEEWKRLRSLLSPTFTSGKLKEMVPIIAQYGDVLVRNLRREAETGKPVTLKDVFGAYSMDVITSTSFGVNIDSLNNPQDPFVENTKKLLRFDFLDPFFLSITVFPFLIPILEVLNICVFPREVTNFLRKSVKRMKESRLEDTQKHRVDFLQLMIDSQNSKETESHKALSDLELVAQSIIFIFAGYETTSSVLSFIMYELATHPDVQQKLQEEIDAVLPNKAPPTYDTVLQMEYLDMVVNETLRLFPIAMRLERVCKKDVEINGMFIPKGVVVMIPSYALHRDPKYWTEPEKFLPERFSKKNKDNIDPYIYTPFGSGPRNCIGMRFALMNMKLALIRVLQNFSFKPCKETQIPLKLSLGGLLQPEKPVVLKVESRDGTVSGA

Cytochrome P450 2D6 = Cytochrome P450 2D6 (Homo sapiens, UniProt P10635); test: Inhibition of human CYP2D6
Chain of Cytochrome P450 2D6 (P10635 whole entry): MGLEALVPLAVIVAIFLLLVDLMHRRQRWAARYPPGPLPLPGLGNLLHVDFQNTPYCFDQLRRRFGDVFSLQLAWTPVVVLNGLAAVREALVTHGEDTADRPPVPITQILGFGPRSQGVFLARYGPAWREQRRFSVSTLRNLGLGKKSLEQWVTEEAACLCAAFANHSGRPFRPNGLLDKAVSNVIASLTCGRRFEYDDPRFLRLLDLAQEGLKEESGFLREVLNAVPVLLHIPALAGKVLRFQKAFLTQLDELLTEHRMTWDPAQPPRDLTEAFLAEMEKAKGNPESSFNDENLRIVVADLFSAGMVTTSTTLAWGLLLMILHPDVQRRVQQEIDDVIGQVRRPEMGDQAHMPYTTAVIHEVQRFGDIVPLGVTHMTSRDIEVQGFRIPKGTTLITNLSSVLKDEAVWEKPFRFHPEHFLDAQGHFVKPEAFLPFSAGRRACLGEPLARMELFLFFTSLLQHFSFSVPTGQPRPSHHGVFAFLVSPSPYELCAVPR

SMILES | IC50 (Cytochrome P450 1A2) | IC50 (Cytochrome P450 2C9) | IC50 (Cytochrome P450 3A4) | IC50 (Cytochrome P450 2D6)
O=c1cc(-c2ccccc2)oc2cc(O)ccc12 [7-HYDROXYFLAVONE] | 0.24 µM |  |  | 
O=c1cc(-c2ccccc2)oc2cc(O)cc(O)c12 [CHRYSIN] |  | 5.23 µM | > 50 µM | > 50 µM
